Measured values: publication doi:10.1101/2021.06.08.447613v1 (biorxiv, 2021)

Biological target: M^Pro (SARS-CoV-2 main protease) (Severe acute respiratory syndrome coronavirus 2, UniProt P0DTD1)
Test: fluorogenic peptide substrate cleavage, […] min preincubation
Format: biochemical
Conditions: pH 7.6, 37 °C, 50 nM enzyme, 10 μM substrate

## CCN(CC)CCCC(C)Nc1ccnc2cc(Cl)ccc12 (stereo not shown) [chloroquine]
  % activity retained at 16 μM: 84%
